This is an account of results in patent US20240317721A1, “PYRAZOLYL DERIVATIVES AS INHIBITORS OF THE KRAS MUTANT PROTEIN” (NOVARTIS AG, priority 2021, published 2024).

pIC50: −log10 of the molar value.

This test addresses KRasG12C (M1-K169, biotinylated on the N-terminus) (Homo sapiens (Human), UniProt P01116, G12C). Kind of test: Covalent competition assay: scintillation proximity assay (SPA) quantifying covalent modification of KRASG12C. Conditions: competition with radiolabeled covalent probe (Compound B/Compound A), 2 hours incubation, 10 nM KRasG12C. Format: binding. In short, it runs like this: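 Test compounds compete with a radiolabeled covalent probe for modification of N-terminally biotinylated KRasG12C(M1-K169):GDP, final 10 nM protein, 25 nM radio-ligand, 475 nM unlabelled ligand, 2 h with agitation in 20 mM Tris-HCl pH 7.5, 150 mM NaCl, 0.1 mM MgCl2, 0.01% Tween-20.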
Background: SPA uses beads or plates that emit light when radiolabelled molecules are held near them.
In general, pIC50 refers to the IC50 on a negative log10 scale, so that one unit is a factor of ten. Turning to `C=CC(=O)N1CC2(CC(n3nc(N4CC[C@@H](CN5CCOC6CS(=O)(=O)CC65)CC4(C)C)c(-c4c(Cl)c(Cl)cc5[nH]ncc45)c3C)C2)C1` (single isomer, unassigned) [Example 266b, 1-(6-(4-(5,6-dichloro-1H-indazol-4-yl)-3-((R)-4-(((4aR*,7aS*)-6,6-dioxidohexahydro-4H-thieno[3,4-b][1,4]oxazin-4-yl)methyl)-2,2-dimethylpiperidin-1-yl)-5-methyl-1H-pyrazol-1-yl)-2-azaspiro[3.3]heptan-2-yl)prop-2-en-1-one], the negative logarithm of the IC50 (pIC50) is 8.15.

With `C=CC(=O)N1CC2(CC(n3nc(N4CC[C@@H](CN5CCOC6(COC6)C5)CC4(C)C)c(-c4c(Cl)c(C)cc5[nH]ncc45)c3C)C2)C1` (single isomer, unassigned) [Example 299a], the negative logarithm of the IC50 (pIC50) was 6.10. To `C=CC(=O)N1CC2(CC(n3nc(N4CC[C@@H](CN5CCN6CCOC[C@H]6C5)CC4(C)C)c(-c4c(Cl)c(Cl)cc5[nH]ncc45)c3C)C2)C1` (single isomer, unassigned) [Example 288b] belongs 8.00; to `C=CC(=O)N1CC2(CC(n3nc(N4CCn5nccc5C4C)c(-c4c(Cl)c(C)cc5[nH]ncc45)c3C)C2)C1` (single isomer, unassigned) [Example 41b, 1-(6-(4-(5-chloro-6-methyl-1H-indazol-4-yl)-5-methyl-3-(4-methyl-6,7-dihydropyrazolo[1,5-a]pyrazin-5(4H)-yl)-1H-pyrazol-1-yl)-2-azaspiro[3.3]heptan-2-yl)prop-2-en-1-one], 6.83.

As for `C=CC(=O)N1CC2(CC(n3nc(N4CCN(C[C@@H]5COCCO5)CC45CCC5)c(-c4c(Cl)c(Cl)cc5[nH]ncc45)c3C)C2)C1` (single isomer, unassigned) [Example 171a], the pIC50 was < 5.30. To `C=CC(=O)N1CC2(CC(n3nc(N4CC=C(CN5CCOCC5)CC4(C)C)c(-c4c(Cl)c(Cl)cc5[nH]ncc45)c3C)C2)C1` (single isomer, unassigned) [Example 220a, 1-(6-(4-(5,6-dichloro-1H-indazol-4-yl)-3-(2,2-dimethyl-4-(morpholinomethyl)-3,6-dihydropyridin-1(2H)-yl)-5-methyl-1H-pyrazol-1-yl)-2-azaspiro[3.3]heptan-2-yl)prop-2-en-1-one] belongs < 5.30; to `C=CC(=O)N1CC2(CC(n3nc(N4CC[C@@H](CN5CCN(C6COC6)CC5)CC4(C)C)c(-c4c(C)c(Cl)cc5[nH]ncc45)c3C)C2)C1` (single isomer, unassigned) [Example 244a], 5.85. In the case of `C=CC(=O)N1CC2(CC(n3nc(N4CCC(N(C)C(=O)COC)CC4(C)C)c(-c4c(Cl)c(C)cc5[nH]ncc45)c3C)C2)C1` (single isomer, unassigned) [Example 97a, N-(1-(1-(2-acryloyl-2-azaspiro[3.3]heptan-6-yl)-4-(5-chloro-6-methyl-1H-indazol-4-yl)-5-methyl-1H-pyrazol-3-yl)-2,2-dimethylpiperidin-4-yl)-2-methoxy-N-methylacetamide] it was 6.52.

Regarding `C=CC(=O)N1CC2(CC(n3nc(N4CC[C@@H](CN(CCO)CCOC)CC4(C)C)c(-c4c(Cl)c(Cl)cc5[nH]ncc45)c3C)C2)C1` (single isomer, unassigned) [Example 253a], the negative logarithm of the IC50 (pIC50) is 5.82. Consider `C=CC(=O)N1CC2(CC(n3nc(N4CCN(CC(C)(C)O)CC45CCC5)c(-c4c(Cl)c(C)cc5[nH]nc(N)c45)c3C)C2)C1` (single isomer, unassigned) [Example 117b, 1-(6-(4-(3-amino-5-chloro-6-methyl-1H-indazol-4-yl)-3-(8-(2-hydroxy-2-methylpropyl)-5,8-diazaspiro[3.5]nonan-5-yl)-5-methyl-1H-pyrazol-1-yl)-2-azaspiro[3.3]heptan-2-yl)prop-2-en-1-one], for which the pIC50 was 5.80.

For `C=CC(=O)N1CC2(CC(n3nc(N4CCN(CCOC(F)F)CC45CCC5)c(-c4c(Cl)c(C)cc5[nH]ncc45)c3C)C2)C1` (single isomer, unassigned) [Example 183a, 1-(6-(4-(5-chloro-6-methyl-1H-indazol-4-yl)-3-(8-(2-(difluoromethoxy)ethyl)-5,8-diazaspiro[3.5]nonan-5-yl)-5-methyl-1H-pyrazol-1-yl)-2-azaspiro[3.3]heptan-2-yl)prop-2-en-1-one], the negative-log IC50 (pIC50) was < 5.30.

As for `C=CC(=O)N1CC2(CC(n3nc(N4CCN(C[C@H]5COCCO5)CC45CCC5)c(-c4c(Cl)c(C)cc5[nH]ncc45)c3C)C2)C1` (single isomer, unassigned) [Example 189b], the pIC50 is 7.82. Take `C=CC(=O)N1CC2(CC(n3nc(N4CC[C@@H](CN5CCN(C6COC6)CC5)CC4(C)C)c(-c4c(Cl)c(F)cc5[nH]ncc45)c3C)C2)C1` (single isomer, unassigned) [Example 245b]: the negative logarithm of the IC50 (pIC50) was 7.85. In the case of `C=CC(=O)N1CC2(CC(n3nc(N4CCN(C(C)=O)CC4(C)C)c(-c4c(Cl)c(C)cc5[nH]ncc45)c3C3CC3)C2)C1` (single isomer, unassigned) [Example 24a, 1-(6-(3-(4-acetyl-2,2-dimethylpiperazin-1-yl)-4-(5-chloro-6-methyl-1H-indazol-4-yl)-5-cyclopropyl-1H-pyrazol-1-yl)-2-azaspiro[3.3]heptan-2-yl)prop-2-en-1-one] it was < 4.30; in that of `C=CC(=O)N1CC2(CC(n3nc(N4C5CCC4COC5)c(-c4c(Cl)c(C)cc5[nH]ncc45)c3C)C2)C1` (single isomer, unassigned) [Example 112b], 6.77; in that of `C=CC(=O)N1CC2(CC(n3nc(N4CC[C@@H](CN5CC6(CCS(=O)(=O)C6)C5)CC4(C)C)c(-c4c(Cl)c(Cl)cc5[nH]ncc45)c3C)C2)C1` (single isomer, unassigned) [Example 254a], 5.59. In the case of `C=CC(=O)N1CC2(CC(n3nc(N4CCC(CN5CCN(C)CC5=O)CC4(C)C)c(-c4c(Cl)c(Cl)cc5[nH]ncc45)c3C)C2)C1` (single isomer, unassigned) [Example 240a, 1-((1-(1-(2-acryloyl-2-azaspiro[3.3]heptan-6-yl)-4-(5,6-dichloro-1H-indazol-4-yl)-5-methyl-1H-pyrazol-3-yl)-2,2-dimethylpiperidin-4-yl)methyl)-4-methylpiperazin-2-one], the pIC50 is 6.41. To `C=CC(=O)N1CC2(CC(n3nc(N4CC[C@@H](CN5CCCC56CN(C(C)=O)C6)CC4(C)C)c(-c4c(Cl)c(Cl)cc5[nH]ncc45)c3C)C2)C1` (single isomer, unassigned) [Example 276a] belongs 5.47.

With `C=CC(=O)N1CC2(CC(n3nc(N4CCC(N5C[C@H]6C[C@@H]5CN6S(C)(=O)=O)CC4(C)C)c(-c4c(Cl)c(Cl)cc5[nH]ncc45)c3C)C2)C1` (single isomer, unassigned) [Example 212a], the negative-log IC50 (pIC50) was 6.45.

As to `C=CC(=O)N1CC2(CC(n3nc(N4CC[C@@H](CN5CC6C5CCN6C5COC5)CC4(C)C)c(-c4c(Cl)c(Cl)cc5[nH]ncc45)c3C)C2)C1` (single isomer, unassigned) [Example 277b, 1-(6-(4-(5,6-dichloro-1H-indazol-4-yl)-3-((R)-2,2-dimethyl-4-(((1S*,5S*)-2-(oxetan-3-yl)-2,6-diazabicyclo[3.2.0]heptan-6-yl)methyl)piperidin-1-yl)-5-methyl-1H-pyrazol-1-yl)-2-azaspiro[3.3]heptan-2-yl)prop-2-en-1-one], the pIC50 is > 8.30. `C=CC(=O)N1CC2(CC(n3nc(N4CCC5(CC4)CN(C(C)=O)CCO5)c(-c4c(Cl)c(C)cc5[nH]ncc45)c3C)C2)C1` (single isomer, unassigned) [Example 26a, 1-(6-(3-(4-acetyl-1-oxa-4,9-diazaspiro [5.5]undecan-9-yl)-4-(5-chloro-6-methyl-1H-indazol-4-yl)-5-methyl-1H-pyrazol-1-yl)-2-azaspiro[3.3]heptan-2-yl)prop-2-en-1-one]: the pIC50 was 4.94.

Take `C=CC(=O)N1CC2(CC(n3nc(N4CCC(n5ccnc5)CC4(C)C)c(-c4c(Cl)c(C)cc5[nH]ncc45)c3C)C2)C1` (single isomer, unassigned) [Example 44b, 1-(6-(3-(4-(1H-imidazol-1-yl)-2,2-dimethylpiperidin-1-yl)-4-(5-chloro-6-methyl-1H-indazol-4-yl)-5-methyl-1H-pyrazol-1-yl)-2-azaspiro[3.3]heptan-2-yl)prop-2-en-1-one]: the pIC50 is 7.70. To `C=CC(=O)N1CC2(CC(n3nc(N4CC[C@@H](CN5C[C@H](O)C[C@H]5COC)CC4(C)C)c(-c4c(Cl)c(Cl)cc5[nH]ncc45)c3C)C2)C1` (single isomer, unassigned) [Example 286a] belongs 5.96. As to `C=CC(=O)N1CC2(CC(n3nc(N4CC[C@@H](CN5CCCN(C(C)=O)CC5)CC4(C)C)c(-c4c(Cl)c(Cl)cc5[nH]ncc45)c3C)C2)C1` (single isomer, unassigned) [Example 315b], the pIC50 is 8.15. To `C=CC(=O)N1CC2(CC(n3nc(N4CCN(CC(F)(F)F)CC4(C)C)c(-c4c(Cl)c(C)cc5[nH]ncc45)c3C)C2)C1` (single isomer, unassigned) [Example 68a, 1-(6-(4-(5-chloro-6-methyl-1H-indazol-4-yl)-3-(2,2-dimethyl-4-(2,2,2-trifluoroethyl)piperazin-1-yl)-5-methyl-1H-pyrazol-1-yl)-2-azaspiro[3.3]heptan-2-yl)prop-2-en-1-one] belongs < 4.82; to `C=CC(=O)N1CC2(CC(n3nc(N4CC[C@@H](CN5CCN(C6COC6)C6COCC65)CC4(C)C)c(-c4c(Cl)c(Cl)cc5[nH]ncc45)c3C)C2)C1` (single isomer, unassigned) [Example 280a, 1-(6-(4-(5,6-dichloro-1H-indazol-4-yl)-3-((R)-2,2-dimethyl-4-(((4aS*,7aR*)-4-(oxetan-3-yl)hexahydrofuro[3,4-b]pyrazin-1(2H)-yl)methyl)piperidin-1-yl)-5-methyl-1H-pyrazol-1-yl)-2-azaspiro[3.3]heptan-2-yl)prop-2-en-1-one], < 5.30.
